{
  "source": "patent US20100190794A1",
  "about": "“Herbicidally Active Composition” (BASF SE, priority 2007, published 2010)",
  "test_in_all_cases": "greenhouse test, pre-emergence treatment",
  "key": {"[1]": {"system": "LOLMU", "format": "in vivo, Lolium multiflorum", "details": "Use Example 1", "text": "(§1) The culture containers used were plastic pots containing loamy sand with approximately 3.0% of humus as substrate. The seeds of the test plants were sown separately for each species.\n(§2) For the pre-emergence treatment, the active compounds, suspended or emulsified in water, were applied directly after sowing by means of finely distributing nozzles. The containers were irrigated gently to promote germination and growth and subsequently covered with transparent plastic hoods until the plants had rooted. This cover caused uniform germination of the test plants unless this was adversely affected by the active compounds.\n(§3) Depending on the species, the plants were kept at 10-25° C. and 20-35° C., respectively. The test period extended over 2 to 4 weeks. During this time, the plants were tended and their response to the individual treatments was evaluated.\n(§4) Evaluation was carried out using a scale from 0 to 100. 100 means no emergence of the plants, or complete destruction of at least the above-ground parts, and 0 means no damage or normal course of growth. Good herbicidal activity is given at values of at least 70, and very good herbicidal activity is given at values of at least 85.\n(§5) The respective stated components A and B, and if appropriate, C were formulated as a 5% by weight or 10% by weight strength emulsion concentrate or a commercially available formulation of component B was used and, with addition of the amount of solvent system, introduced into the spray liquor used for applying the active compound. In the examples, the solvent used was water.\n(§6) The test period extended over 20 or 21 days. During this time, the plants were tended, and their reactions to the treatment with active compound was monitored.\n(§7) What was evaluated was the damage by the chemical compositions using a scale of from 0 to 100%, in comparison to the untreated control plants. 0 means no damage, and 100 means complete destruction of the plants.\n(§8) In the examples below, using the method of S. R. Colby (1967) “Calculating synergistic and antagonistic responses of herbicide combinations”, Weeds 15, p. 22 ff., the value E, which is expected if the activity of the individual active compounds is only additive, was calculated.\n(§9) where X=percent activity using active compound A at an application rate a; Y=percent activity using active compound B at an application rate b; E=expected activity (in %) by A+B at application rates a+b.\n(§10) If the value found in experiments is higher than the value E calculated according to Colby, a synergistic effect is present."}, "[2]": {"system": "PHACA", "format": "in vivo, Phalaris canariensis", "details": "Use Example 1", "text": "as §1, §2, §3, §4, §5, §6, §7, §8, §9, §10"}, "[3]": {"system": "CCHEC", "format": "in vivo, Cenchrus echinatus", "details": "for Herbicidal action in % after 20 days against CCHEC: Use Example 16; for Herbicidal action in % after 21 days against CCHEC: Use Example 3", "text": "as §1, §2, §3, §4, §5, §6, §7, §8, §9, §10"}, "[4]": {"system": "BRAPL", "format": "in vivo, Brachiaria plantaginea", "text": "as §1, §2, §3, §4, §5, §6, §7, §8, §9, §10"}, "[5]": {"system": "SETLU", "format": "in vivo, Setaria glauca", "details": "for Herbicidal action in % after 20 days against SETLU: Use Example 16", "text": "as §1, §2, §3, §4, §5, §6, §7, §8, §9, §10"}, "[6]": {"system": "DIGSA", "format": "in vivo, Digitaria sanguinalis", "details": "for Herbicidal action in % after 20 days against DIGSA: Use Example 19", "text": "as §1, §2, §3, §4, §5, §6, §7, §8, §9, §10"}, "[7]": {"system": "SETFA", "format": "in vivo, Setaria faberi", "details": "Use Example 19", "text": "as §1, §2, §3, §4, §5, §6, §7, §8, §9, §10"}, "[8]": {"system": "SOLNI", "format": "in vivo, Solanum nigrum L.", "details": "Use Example 19", "text": "as §1, §2, §3, §4, §5, §6, §7, §8, §9, §10"}, "[9]": {"system": "ALOMY", "format": "in vivo, Alopecurus myosuroides", "details": "Use Example 15", "text": "as §1, §2, §3, §4, §5, §6, §7, §8, §9, §10"}, "[10]": {"system": "POAAN", "format": "in vivo, Poa annua", "details": "Use Example 15", "text": "as §1, §2, §3, §4, §5, §6, §7, §8, §9, §10"}, "[11]": {"system": "PANDI", "format": "in vivo, Panicum dichotomiflorum", "details": "Use Example 3", "text": "as §1, §2, §3\nas §4, with “85. […]” for “85.”\nas §6\nWhat was evaluated was the damage by the chemical compositions using a scale of from 0 to 100%, in comparison to the untreated control plants. […]\nIn the examples below, using the method of S. R. Colby (1967) “Calculating synergistic and antagonistic responses of herbicide combinations”, Weeds 15, p. 22 ff., the value E, which is expected if the activity of the individual active compounds is only additive, was calculated. […]\nas §10"}},
  "data": [
    {"smiles": "CC(C)N(C(=O)SCC(Cl)=C(Cl)Cl)C(C)C", "note": "[Triallate, reference compound]", "values": [
      {"measurement": "Herbicidal action in % after 20 days against LOLMU", "setting": "[1]; 300 g/ha a.s.", "value": 60, "unit": "%"},
      {"measurement": "Herbicidal action in % after 20 days against LOLMU", "setting": "[1]; 600 g/ha a.s.", "value": 80, "unit": "%"},
      {"measurement": "Herbicidal action in % after 20 days against PHACA", "setting": "[2]; 300 g/ha a.s.", "value": 40, "unit": "%"},
      {"measurement": "Herbicidal action in % after 20 days against PHACA", "setting": "[2]; 600 g/ha a.s.", "value": 50, "unit": "%"}
    ]},
    {"smiles": "O=C(O)c1c(Cl)ccc2cc(Cl)cnc12", "note": "[Quinclorac]", "values": [
      {"measurement": "Herbicidal action in % after 20 days against CCHEC", "setting": "[3]; 62.5 g/ha a.s.", "value": 0, "unit": "%"},
      {"measurement": "Herbicidal action in % after 20 days against CCHEC", "setting": "[3]; 125 g/ha a.s.", "value": 20, "unit": "%"},
      {"measurement": "Herbicidal action in % after 20 days against BRAPL", "setting": "[4]; 62.5 g/ha a.s., Use Example 16", "value": 0, "unit": "%"},
      {"measurement": "Herbicidal action in % after 20 days against BRAPL", "setting": "[4]; 125 g/ha a.s., Use Example 16", "value": 25, "unit": "%"},
      {"measurement": "Herbicidal action in % after 20 days against SETLU", "setting": "[5]; 62.5 g/ha a.s.", "value": 50, "unit": "%"},
      {"measurement": "Herbicidal action in % after 20 days against SETLU", "setting": "[5]; 125 g/ha a.s.", "value": 85, "unit": "%"}
    ]},
    {"smiles": "CS(=O)(=O)c1cc(C(F)(F)F)ccc1C(=O)c1cnoc1C1CC1", "note": "[Isoxaflutol, Isoxaflutole]", "values": [
      {"measurement": "Herbicidal action in % after 20 days against BRAPL", "setting": "[4]; 13 g/ha a.s., Use Example 19", "value": 75, "unit": "%"},
      {"measurement": "Herbicidal action in % after 21 days against BRAPL", "setting": "[4]; 25 g/ha a.s., Use Example 9", "value": 90, "unit": "%"},
      {"measurement": "Herbicidal action in % after 20 days against BRAPL", "setting": "[4]; 25 g/ha a.s., Use Example 19", "value": 80, "unit": "%"},
      {"measurement": "Herbicidal action in % after 20 days against DIGSA", "setting": "[6]; 13 g/ha a.s.", "value": 75, "unit": "%"},
      {"measurement": "Herbicidal action in % after 21 days against DIGSA", "setting": "[6]; 25 g/ha a.s., Use Example 9", "value": 98, "unit": "%"},
      {"measurement": "Herbicidal action in % after 20 days against DIGSA", "setting": "[6]; 25 g/ha a.s.", "value": 95, "unit": "%"},
      {"measurement": "Herbicidal action in % after 21 days against SETLU", "setting": "[5]; 25 g/ha a.s., Use Example 9", "value": 75, "unit": "%"},
      {"measurement": "Herbicidal action in % after 20 days against SETFA", "setting": "[7]; 13 g/ha a.s.", "value": 40, "unit": "%"},
      {"measurement": "Herbicidal action in % after 20 days against SETFA", "setting": "[7]; 25 g/ha a.s.", "value": 55, "unit": "%"},
      {"measurement": "Herbicidal action in % after 20 days against SOLNI", "setting": "[8]; 13 g/ha a.s.", "value": 85, "unit": "%"},
      {"measurement": "Herbicidal action in % after 20 days against SOLNI", "setting": "[8]; 25 g/ha a.s.", "value": 98, "unit": "%"}
    ]},
    {"smiles": "CC1(C)CON(Cc2ccccc2Cl)C1=O", "note": "[Clomazon, Clomazone]", "values": [
      {"measurement": "Herbicidal action in % after 21 days against BRAPL", "setting": "[4]; 50 g/ha a.s., Use Example 8", "value": 65, "unit": "%"},
      {"measurement": "Herbicidal action in % after 21 days against BRAPL", "setting": "[4]; 100 g/ha a.s., Use Example 8", "value": 85, "unit": "%"}
    ]},
    {"smiles": "CCC(C)(CC)c1cc(NC(=O)c2c(OC)cccc2OC)on1", "note": "[Isoxaben, reference compound]", "values": [
      {"measurement": "Herbicidal action in % after 20 days against ALOMY", "setting": "[9]; 25 g/ha a.s.", "value": 0, "unit": "%"},
      {"measurement": "Herbicidal action in % after 20 days against ALOMY", "setting": "[9]; 50 g/ha a.s.", "value": 0, "unit": "%"},
      {"measurement": "Herbicidal action in % after 20 days against POAAN", "setting": "[10]; 25 g/ha a.s.", "value": 0, "unit": "%"},
      {"measurement": "Herbicidal action in % after 20 days against POAAN", "setting": "[10]; 50 g/ha a.s.", "value": 0, "unit": "%"}
    ]},
    {"smiles": "CCc1cnc(C2=NC(C)(C(C)C)C(=O)N2)c(C(=O)O)c1", "note": "(stereo not shown) [Imazethapyr]", "values": [
      {"measurement": "Herbicidal action in % after 21 days against PANDI", "setting": "[11]; 17.5 g/ha a.s.", "value": 95, "unit": "%"},
      {"measurement": "Herbicidal action in % after 21 days against PANDI", "setting": "[11]; 35 g/ha a.s.", "value": 95, "unit": "%"},
      {"measurement": "Herbicidal action in % after 21 days against CCHEC", "setting": "[3]; 17.5 g/ha a.s.", "value": 50, "unit": "%"},
      {"measurement": "Herbicidal action in % after 21 days against CCHEC", "setting": "[3]; 35 g/ha a.s.", "value": 60, "unit": "%"}
    ]}
  ]
}
